Several values for one entry are separate records, joined by “and”; a condition that tells them apart may be missing. Equal values may be shown once. Read-outs that look alike come from different tables or passages of the source.
Tested on: AsPC-1 cells
Test: Cell proliferation assay, chemodrug + ATR inhibitor (Incucyte confluence, 72 h);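 also: underlying read-out for every value is AsPC-1 confluence after 72 h incubation at 37 °C and 5% CO2, divided by that well's starting confluence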
Settings: for EC50: Homo sapiens; for Ratio: Response / Response vehicle (mean)
[1] = AsPC-1, Experiment GEM (no ATRi), single replicates R1-R3, listed as 5-FU
[2] = AsPC-1, Experiment GEM+ATRi_dose1, single replicates R1-R3, listed as 5-FU
[3] = AsPC-1, Experiment GEM+ATRi_dose2, single replicates R1-R3, listed as 5-FU
[4] = AsPC-1, Experiment GEM+ATRi_dose3, single replicates R1-R3, listed as 5-FU
[5] = Drug 0 nM + ATRi 3 nM (ATRi alone, GEM+ATRi_dose1 series), replicates R1-R3, listed as 5-FU
[6] = Drug 0 nM + ATRi 10 nM (ATRi alone, GEM+ATRi_dose2 series), replicates R1-R3, listed as 5-FU
[7] = Drug 0 nM + ATRi 30 nM (ATRi alone, GEM+ATRi_dose3 series), replicates R1-R3, listed as 5-FU
[8] = Drug 1 nM + ATRi 3 nM (GEM+ATRi_dose1), replicates R1-R3, listed as 5-FU
[9] = Drug 1 nM + ATRi 10 nM (GEM+ATRi_dose2), replicates R1-R3, listed as 5-FU
[10] = Drug 1 nM + ATRi 30 nM (GEM+ATRi_dose3), replicates R1-R3, listed as 5-FU
[11] = Drug 3 nM + ATRi 3 nM (GEM+ATRi_dose1), replicates R1-R3, listed as 5-FU
[12] = Drug 3 nM + ATRi 30 nM (GEM+ATRi_dose3), replicates R1-R3, listed as 5-FU
[13] = Drug 3 nM alone, ATRi 0 nM (experiment 'GEM'), replicates R1-R3, listed as 5-FU
[14] = Drug 10 nM + ATRi 3 nM (GEM+ATRi_dose1), replicates R1-R3, listed as 5-FU
[15] = Drug 10 nM + ATRi 10 nM (GEM+ATRi_dose2), replicates R1-R3, listed as 5-FU
[16] = Drug 10 nM + ATRi 30 nM (GEM+ATRi_dose3), replicates R1-R3, listed as 5-FU
[17] = Drug 10 nM alone, ATRi 0 nM (experiment 'GEM'), replicates R1-R3, listed as 5-FU
[18] = Drug 30 nM + ATRi 3 nM (GEM+ATRi_dose1), replicates R1-R3, listed as 5-FU
[19] = Drug 30 nM + ATRi 10 nM (GEM+ATRi_dose2), replicates R1-R3, listed as 5-FU
[20] = Drug 30 nM + ATRi 30 nM (GEM+ATRi_dose3), replicates R1-R3, listed as 5-FU
[21] = Drug 100 nM + ATRi 3 nM (GEM+ATRi_dose1), replicates R1-R3
[22] = Drug 100 nM + ATRi 10 nM (GEM+ATRi_dose2), replicates R1-R3, listed as 5-FU
[23] = Drug 100 nM + ATRi 30 nM (GEM+ATRi_dose3), replicates R1-R3, listed as 5-FU
[24] = Drug 100 nM alone, ATRi 0 nM (experiment 'GEM'), replicates R1-R3, listed as 5-FU
[25] = Drug 300 nM + ATRi 3 nM (GEM+ATRi_dose1), replicates R1-R3
[26] = Drug 300 nM + ATRi 10 nM (GEM+ATRi_dose2), replicates R1-R3, listed as 5-FU
[27] = Drug 300 nM + ATRi 30 nM (GEM+ATRi_dose3), replicates R1-R3, listed as 5-FU
[28] = Drug 300 nM alone, ATRi 0 nM (experiment 'GEM'), replicates R1-R3, listed as 5-FU
[29] = Drug 1000 nM + ATRi 3 nM (GEM+ATRi_dose1), replicates R1-R3
[30] = Drug 1000 nM + ATRi 30 nM (GEM+ATRi_dose3), replicates R1-R3, listed as 5-FU
[31] = Drug 1000 nM alone, ATRi 0 nM (experiment 'GEM'), replicates R1-R3, listed as 5-FU
[32] = Drug 3000 nM + ATRi 3 nM (GEM+ATRi_dose1), replicates R1-R3
[33] = Drug 3000 nM + ATRi 10 nM (GEM+ATRi_dose2), replicates R1-R3, listed as 5-FU
[34] = Drug 3000 nM + ATRi 30 nM (GEM+ATRi_dose3), replicates R1-R3, listed as 5-FU
[35] = Drug 3000 nM alone, ATRi 0 nM (experiment 'GEM'), replicates R1-R3, listed as 5-FU
[36] = drug 100 nM + ATRi 3 nM, listed as 5-FU
[37] = drug 300 nM + ATRi 3 nM, listed as 5-FU
[38] = drug 1000 nM + ATRi 3 nM, listed as 5-FU
[39] = drug 3000 nM + ATRi 3 nM, listed as 5-FU

Protocol: Cells were seeded at 5000 cells/well into 96-well flat bottom plates (Eppendorf) and allowed to attach overnight. […] Cells were incubated for 72 h at 37 °C and 5% CO2. Cell confluence readouts at 72 h were either normalized to their initial confluence using the Incucyte software (AsPC-1) or used without prior normalization (all others). […] Each experiment was performed in triplicates, the data was plotted as mean ± standard deviation (s.d.).

O=c1[nH]cc(F)c(=O)[nH]1 [5-fluorouracil]
Curve bottom [1]: 1.02 and 1.01 and 1.04 | Curve slope [1]: 1.53 and 1.20 and 1.02 | Curve top [1]: 0.52 and 0.45 and 0.53 | Curve bottom [2]: 1.03 and 1.04 | Curve slope [2]: 1.17 and 1.72 and 2.53 | Curve top [2]: 0.34 and 0.38 and 0.50 | Curve bottom (AsPC-1, Experiment GEM+ATRi_dose2, single replicates R1-R3): 1.02 | Curve slope [3]: 2.12 and 2.47 and 2.30 | Curve top [3]: 0.44 and 0.42 and 0.41 | Curve bottom [4]: 0.92 and 0.93 and 0.96 | Curve slope [4]: 7.78 and 7.99 and 4.74 | Curve top [4]: 0.42 and 0.41 | Response [5]: 93.23 and 93.25 | Response [6]: 93.23 and 93.25 | Response [7]: 86.00 and 86.93 | Response [8]: 93.84 and 90.46 | Response [9]: 92.14 and 89.28 | Response [10]: 85.34 and 86.33 | Response (Drug 1 nM alone, ATRi 0 nM (experiment 'GEM'), replicates R1-R3, listed as 5-FU): 94.45 | Response [11]: 93.43 and 94.40 | Response (Drug 3 nM + ATRi 10 nM (GEM+ATRi_dose2), replicates R1-R3, listed as 5-FU): 92.25 and 90.36 | Response [12]: 84.22 and 84.05 | Response [13]: 90.32 | Response [14]: 92.50 and 91.39 | Response [15]: 91.53 and 89.96 | Response [16]: 83.67 and 82.94 | Response [17]: 89.98 and 90.52 | Response [18]: 93.40 and 92.15 | Response [19]: 91.74 and 91.80 | Response [20]: 86.01 and 86.29 | Response (Drug 30 nM alone, ATRi 0 nM (experiment 'GEM'), replicates R1-R3, listed as 5-FU): 91.55 and 89.05 | Response [21]: 92.03 | Response [22]: 90.88 and 90.27 | Response [23]: 85.31 and 85.49 | Response [24]: 92.05 and 91.30 | Response [25]: 79.74 | Response [26]: 62.48 and 67.47 | Response [27]: 51.19 and 52.50 | Response [28]: 82.78 and 83.05 | Response [29]: 50.06 | Response (Drug 1000 nM + ATRi 10 nM (GEM+ATRi_dose2), replicates R1-R3, listed as 5-FU): 44.01 and 42.89 | Response [30]: 38.74 and 41.39 | Response [31]: 71.08 and 72.31 | Response [32]: 44.54 | Response [33]: 35.64 and 36.17 | Response [34]: 35.72 and 32.91 | Response [35]: 54.65 and 60.00 | EC50 (ASPC1, 72 h, AsPC-1, Experiment GEM (no ATRi), single replicates R1-R3): 1020 nM | EC50 (ASPC1, 72 h, read-out: EC50 mean [nM], AsPC-1, Experiment GEM (no ATRi), mean of R1-R3, repeated in each replicate line): 1190 nM | EC50 (ASPC1, 72 h, read-out: pEC50, AsPC-1 (converted), Experiment GEM (no ATRi), single replicates R1-R3): 1020 nM | EC50 (ASPC1, read-out: EC50 mean [nM], AsPC-1, Experiment GEM (no ATRi), mean of R1-R3, repeated in each replicate line): 1190 nM | EC50 (ASPC1, read-out: EC50 mean [nM], AsPC-1, Experiment GEM+ATRi_dose1, mean of R1-R3, repeated in each replicate line): 619 nM | EC50 (ASPC1, read-out: EC50 mean [nM], AsPC-1, Experiment GEM+ATRi_dose2, mean of R1-R3, repeated in each replicate line): 326 nM | EC50 (ASPC1, read-out: EC50 mean [nM], AsPC-1, Experiment GEM+ATRi_dose3, mean of R1-R3, repeated in each replicate line): 266 nM | Ratio [5]: 1.02 and 1.04 | Ratio [6]: 1.02 and 1.04 | Ratio [7]: 0.94 and 0.97 | Ratio [8]: 1.03 and 1.01 | Ratio [9]: 1.01 and 1.00 | Ratio [10]: 0.94 and 0.97 | Ratio (Drug 1 nM alone, ATRi 0 nM (experiment 'GEM'), replicates R1-R3): 1.04 | Ratio [11]: 1.03 and 1.06 | Ratio (Drug 3 nM + ATRi 10 nM (GEM+ATRi_dose2), replicates R1-R3): 1.01 | Ratio [12]: 0.92 and 0.94 | Ratio [13]: 0.99 and 1.05 | Ratio [14]: 1.01 and 1.02 | Ratio [15]: 1.00 and 1.01 | Ratio [16]: 0.92 and 0.93 | Ratio [17]: 0.99 and 1.01 | Ratio [18]: 1.02 and 1.03 | Ratio [19]: 1.01 and 1.03 | Ratio [20]: 0.94 and 0.97 | Ratio (Drug 30 nM alone, ATRi 0 nM (experiment 'GEM'), replicates R1-R3): 1.00 | Ratio [21]: 1.03 | Ratio [22]: 1.00 and 1.01 | Ratio [23]: 0.94 and 0.96 | Ratio [24]: 1.01 and 1.02 | Ratio [25]: 0.89 | Ratio [26]: 0.69 and 0.76 | Ratio [27]: 0.56 and 0.59 | Ratio [28]: 0.91 and 0.93 | Ratio [29]: 0.56 | Ratio (Drug 1000 nM + ATRi 10 nM (GEM+ATRi_dose2), replicates R1-R3): 0.48 | Ratio [30]: 0.43 and 0.46 | Ratio [31]: 0.78 and 0.81 | Ratio [32]: 0.50 | Ratio [33]: 0.39 and 0.41 | Ratio [34]: 0.39 and 0.37 | Ratio [35]: 0.60 and 0.67 | Ratio (drug 1 nM + ATRi 3 nM): 1.05 | Ratio (drug 1 nM + ATRi 10 nM): 1.03 | Ratio (drug 1 nM + ATRi 30 nM): 0.93 | Ratio (drug 1 nM alone (ATRi 0 nM)): 1.02 | Ratio (drug 3 nM + ATRi 3 nM): 1.01 | Ratio (drug 3 nM + ATRi 10 nM): 0.98 | Ratio (drug 3 nM + ATRi 30 nM): 0.92 | Ratio (drug 3 nM alone (ATRi 0 nM)): 1.00 | Ratio (drug 10 nM + ATRi 3 nM): 1.01 | Ratio (drug 10 nM + ATRi 10 nM): 1.01 | Ratio (drug 10 nM + ATRi 30 nM): 0.91 | Ratio (drug 10 nM alone (ATRi 0 nM)): 1.02 | Ratio (drug 30 nM + ATRi 3 nM): 1.02 | Ratio (drug 30 nM + ATRi 10 nM): 1.00 | Ratio (drug 30 nM + ATRi 30 nM): 0.94 | Ratio (drug 30 nM alone (ATRi 0 nM)): 1.02 | Ratio [36]: 1.02 and 1.04 | Ratio (drug 100 nM + ATRi 10 nM): 1.01 | Ratio (drug 100 nM + ATRi 30 nM): 0.92 | Ratio (drug 100 nM alone (ATRi 0 nM)): 1.03 | Ratio [37]: 0.84 and 0.85 | Ratio (drug 300 nM + ATRi 10 nM): 0.76 | Ratio (drug 300 nM + ATRi 30 nM): 0.58 | Ratio (drug 300 nM alone (ATRi 0 nM)): 0.95 | Ratio [38]: 0.66 and 0.57 | Ratio (drug 1000 nM + ATRi 10 nM): 0.52 | Ratio (drug 1000 nM + ATRi 30 nM): 0.43 | Ratio (drug 1000 nM alone (ATRi 0 nM)): 0.78 | Ratio [39]: 0.46 and 0.41 | Ratio (drug 3000 nM + ATRi 10 nM): 0.43 | Ratio (drug 3000 nM + ATRi 30 nM): 0.42 | Ratio (drug 3000 nM alone (ATRi 0 nM)): 0.60 | sensitization of AsPC-1 cells to the chemodrug by Elimusertib (chemodrug + three sub-EC50 doses of Elimusertib): sensitized | Response (drug 1 nM + ATRi 3 nM): 97.06 | Response (drug 1 nM + ATRi 10 nM): 94.90 | Response (drug 1 nM + ATRi 30 nM): 85.74 | Response (drug 1 nM alone (ATRi 0 nM)): 94.29 | Response (drug 3 nM + ATRi 3 nM): 93.28 | Response (drug 3 nM + ATRi 10 nM): 90.39 | Response (drug 3 nM + ATRi 30 nM): 84.88 | Response (drug 3 nM alone (ATRi 0 nM)): 92.53 | Response (drug 10 nM + ATRi 3 nM): 93.05 | Response (drug 10 nM + ATRi 10 nM): 92.81 | Response (drug 10 nM + ATRi 30 nM): 83.72 | Response (drug 10 nM alone (ATRi 0 nM)): 93.59 | Response (drug 30 nM + ATRi 3 nM): 93.52 | Response (drug 30 nM + ATRi 10 nM): 91.78 | Response (drug 30 nM + ATRi 30 nM): 86.53 | Response (drug 30 nM alone (ATRi 0 nM)): 94.07 | Response [36]: 94.22 and 94.47 | Response (drug 100 nM + ATRi 10 nM): 93.45 | Response (drug 100 nM + ATRi 30 nM): 85.12 | Response (drug 100 nM alone (ATRi 0 nM)): 94.67 | Response [37]: 77.35 and 77.27 | Response (drug 300 nM + ATRi 10 nM): 69.87 | Response (drug 300 nM + ATRi 30 nM): 53.83 | Response (drug 300 nM alone (ATRi 0 nM)): 87.11 | Response [38]: 61.14 and 51.57 | Response (drug 1000 nM + ATRi 10 nM): 47.87 | Response (drug 1000 nM + ATRi 30 nM): 39.31 | Response (drug 1000 nM alone (ATRi 0 nM)): 71.77 | Response [39]: 42.27 and 37.14 | Response (drug 3000 nM + ATRi 10 nM): 39.36 | Response (drug 3000 nM + ATRi 30 nM): 38.38 | Response (drug 3000 nM alone (ATRi 0 nM)): 55.50
